Measurements: paper PMC3654204, “2-Aminoethoxydiphenyl borate activates the mechanically gated human KCNK channels KCNK 2 (TREK-1), KCNK 4 (TRAAK), and KCNK 10 (TREK-2)” (Frontiers in Pharmacology, 2013)

How the values were obtained:
Assay in all cases: two-electrode voltage clamp, Xenopus oocytes, current at +[…] mV
Assay type in all cases: cell-based
hKCNK4 (hTRAAK) = molecular target: T1, hKCNK4 (hTRAAK) (Homo sapiens, UniProt Q9NYG8); details: activator; frog Ringer's solution, pH 7.2; EC50 could not be determined; also active in inside-out HEK293 patches
T1 construct: gene KCNK4; full-length cDNA clone in pBluescript SK+ purchased from Imagenes; cRNA injected in Xenopus laevis oocytes, pCDNA3 in HEK293; K2P channels are homodimers
T1 sequence (Q9NYG8 1-393): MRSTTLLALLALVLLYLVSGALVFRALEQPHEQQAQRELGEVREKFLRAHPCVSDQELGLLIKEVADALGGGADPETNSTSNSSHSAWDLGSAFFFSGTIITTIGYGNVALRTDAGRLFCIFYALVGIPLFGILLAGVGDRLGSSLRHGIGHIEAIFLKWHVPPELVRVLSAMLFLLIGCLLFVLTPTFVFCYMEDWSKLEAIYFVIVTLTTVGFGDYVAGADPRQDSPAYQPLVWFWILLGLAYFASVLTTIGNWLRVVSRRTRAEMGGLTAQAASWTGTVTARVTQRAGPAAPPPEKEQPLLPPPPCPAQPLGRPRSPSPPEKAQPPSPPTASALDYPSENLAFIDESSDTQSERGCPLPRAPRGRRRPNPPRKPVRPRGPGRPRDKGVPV

hKCNK10 (TREK-2) = molecular target: T2, hKCNK10 (TREK-2) (Homo sapiens, UniProt P57789)
T2 construct: gene KCNK10; full-length cDNA clone purchased from Imagenes, subcloned into pSGEM (cRNA, Xenopus laevis oocytes) and pCDNA3 (HEK293); K2P channels are homodimers
T2 sequence (P57789 1-538): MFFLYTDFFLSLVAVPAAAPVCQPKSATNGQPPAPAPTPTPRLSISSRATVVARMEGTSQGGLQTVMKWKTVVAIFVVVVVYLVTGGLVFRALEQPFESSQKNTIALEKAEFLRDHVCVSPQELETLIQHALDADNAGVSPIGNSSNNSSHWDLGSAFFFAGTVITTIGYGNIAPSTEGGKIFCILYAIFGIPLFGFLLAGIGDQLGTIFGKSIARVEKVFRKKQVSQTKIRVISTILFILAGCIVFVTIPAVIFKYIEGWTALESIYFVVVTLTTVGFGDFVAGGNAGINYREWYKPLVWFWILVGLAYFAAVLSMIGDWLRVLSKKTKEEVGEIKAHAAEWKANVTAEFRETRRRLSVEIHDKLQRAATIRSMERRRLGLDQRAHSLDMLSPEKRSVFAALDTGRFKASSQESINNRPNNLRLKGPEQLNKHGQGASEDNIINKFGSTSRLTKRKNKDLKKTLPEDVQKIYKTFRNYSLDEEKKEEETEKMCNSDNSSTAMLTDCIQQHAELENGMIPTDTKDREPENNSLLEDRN

hKCNK2 (hTREK-1) = molecular target: T3, hKCNK2 (hTREK-1) (Homo sapiens, UniProt O95069)
T3 construct: gene KCNK2; full-length cDNA clone in pDNR-dual purchased from Imagenes, subcloned into pSGEM; cRNA injected in Xenopus laevis oocytes; K2P channels are homodimers
T3 sequence (O95069 1-426): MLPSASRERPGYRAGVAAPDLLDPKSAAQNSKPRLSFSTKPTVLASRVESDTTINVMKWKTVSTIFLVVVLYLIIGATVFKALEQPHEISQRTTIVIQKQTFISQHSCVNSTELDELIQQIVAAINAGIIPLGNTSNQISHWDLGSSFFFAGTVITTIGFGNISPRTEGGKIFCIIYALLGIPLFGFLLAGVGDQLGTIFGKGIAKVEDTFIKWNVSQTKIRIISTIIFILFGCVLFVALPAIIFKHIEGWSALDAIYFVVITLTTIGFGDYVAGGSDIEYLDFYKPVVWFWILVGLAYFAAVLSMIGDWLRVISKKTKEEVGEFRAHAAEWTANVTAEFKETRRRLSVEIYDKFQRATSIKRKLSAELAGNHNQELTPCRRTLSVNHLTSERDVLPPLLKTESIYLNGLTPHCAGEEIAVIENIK

NCCOB(c1ccccc1)c1ccccc1 [2-APB]
fold of basal current at 1 mM (hKCNK4 (hTRAAK)): 2.68 ± 0.2 fold
EC50 (hKCNK10 (TREK-2)): 1220 ± 390 µM
EC50 (hKCNK2 (hTREK-1)): 486 ± 135 µM
